Reference: patent publication US7718676B2, “2-aminoaryloxazole compounds as tyrosine kinase inhibitors” (AB Science, priority 2003, dated 2010)

Cc1ccc(C(=O)Nc2ccc(C#N)cc2)cc1Nc1ncc(-c2cccnc2)o1 [Compound 058, N-(4-Cyano-phenyl)-4-methyl-3-(5-pyridin-3-yl-oxazol-2-ylamino)-benzamide]
melting point: 203 °C

Cc1ccc(NC(=O)c2cccc(N(C)C)c2)cc1Nc1ncc(-c2cccnc2)o1 [Compound 010, 3-Dimethylamino-N-[4-methyl-3-(5-pyridin-3-yl-oxazol-2-ylamino)-phenyl]-benzamide]
melting point: 228 °C
